Laboratory results as given in patent US7317037B2, “Progesterone receptor modulators comprising pyrrole-oxindole derivatives and uses thereof” (Wyeth, priority 2004, dated 2008).
Like-named read-outs stand apart in the source and are kept apart here.

Assays:
[1] = target: T1, progesterone receptor (PR) (Homo sapiens, UniProt P06401); assay: T47D cell alkaline phosphatase assay (antagonist mode); type: cell-based
T1 construct: Effects of Progestins and Antiprogestins on Alkaline Phosphatase Activity in T47D Cells; endogenous in cells; host or cells: T47D cells
T1 sequence (P06401 1-933): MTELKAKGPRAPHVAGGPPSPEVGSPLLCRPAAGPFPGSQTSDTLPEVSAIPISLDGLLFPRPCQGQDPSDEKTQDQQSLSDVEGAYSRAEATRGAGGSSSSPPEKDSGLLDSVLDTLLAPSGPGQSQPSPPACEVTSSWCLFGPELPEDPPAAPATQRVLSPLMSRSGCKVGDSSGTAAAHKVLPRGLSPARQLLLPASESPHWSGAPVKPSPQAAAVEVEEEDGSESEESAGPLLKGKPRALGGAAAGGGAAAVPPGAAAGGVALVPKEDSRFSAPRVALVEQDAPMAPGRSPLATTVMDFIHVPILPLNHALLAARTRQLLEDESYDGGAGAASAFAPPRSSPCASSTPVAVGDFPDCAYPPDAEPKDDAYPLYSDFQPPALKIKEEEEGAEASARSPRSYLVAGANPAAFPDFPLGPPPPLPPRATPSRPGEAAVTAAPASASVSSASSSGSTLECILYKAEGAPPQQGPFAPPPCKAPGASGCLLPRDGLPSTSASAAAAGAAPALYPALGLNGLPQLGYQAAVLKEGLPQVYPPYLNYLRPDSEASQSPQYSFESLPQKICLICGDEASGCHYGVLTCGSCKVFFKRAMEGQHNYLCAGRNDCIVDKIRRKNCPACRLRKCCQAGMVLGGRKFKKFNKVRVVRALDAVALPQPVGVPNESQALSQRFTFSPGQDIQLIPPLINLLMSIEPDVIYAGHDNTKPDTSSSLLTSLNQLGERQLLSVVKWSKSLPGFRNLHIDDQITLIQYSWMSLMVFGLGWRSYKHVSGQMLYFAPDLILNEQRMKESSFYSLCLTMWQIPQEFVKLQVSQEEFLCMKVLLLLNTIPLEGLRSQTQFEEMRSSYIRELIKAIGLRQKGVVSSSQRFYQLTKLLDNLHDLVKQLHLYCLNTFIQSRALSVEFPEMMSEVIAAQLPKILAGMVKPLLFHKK
Protocol: A. Effects of Progestins and Antiprogestins on Alkaline Phosphatase Activity in T47D Cells (T47D Alkaline Phosphatase Assay)
Culture medium: DMEM:F12 (1:1) (GIBCO, BRL) supplemented with 5% (v/v) charcoal stripped fetal bovine serum (not heat-inactivated), 100 U/mL penicillin, 100 μg/mL streptomycin, and 2 mM GlutaMax (GIBCO, BRL).
Alkaline phosphatase assay buffer: I. 0.1M Tris-HCl, pH 9.8, containing 0.2% Triton X-100, 0.1M Tris-HCl, pH 9.8, containing 4 mM p-nitrophenyl phosphate (Sigma).
2. Cell Culture and Treatment:
Frozen T47D cells are thawed in a 37° C. water bath and diluted to 280,000 cells/mL in culture medium. To each well in a 96-well plate (Falcon, Becton Dickinson Labware), 180 μl of diluted cell suspension is added. Twenty μl of reference or test compounds diluted in the culture medium is then added to each well. When testing for progestin antagonist activity, reference antiprogestins or test compounds are added in the presence of 1 nM progesterone. The cells are incubated at 37° C. in a 5% CO2 humidified atmosphere for 24 hours. For high throughput screening, one concentration of each compound will be tested at 0.3 μg/mL. Based on an average molecular weight of 300 g/mol for the compounds in the library, the concentration is approximately 1 μM. Subsequently, active compounds will be tested in dose response assays to determine EC50 and IC50.
3. Alkaline Phosphatase Enzyme Assay:
At the end of treatment, the medium is removed from the plate. Fifty μl of assay buffer I is added to each well. The plates are shaken in a titer plate shaker for 15 min. Then 150 μl of assay buffer II is added to each well. Optical density measurements are taken at 5 min intervals for 30 min at a test wavelength of 405 nm.
4. Analysis of Dose-Response Data.
For reference and test compounds, a dose response curve is generated for dose vs. the rate of enzyme reaction (slope). Square root-transformed data are used for analysis of variance and nonlinear dose response curve fitting for both agonist and antagonist modes. Huber weighting is used to down-weight the effects of outliers. EC50 or IC50 values are calculated from the retransformed values. JMP software (SAS Institute, Inc.) is used for both one-way analysis of variance and non-4 linear dose response analysis in both single dose and dose response studies.
Progesterone and trimegestone are reference progestins and RU486 is the reference antiprogestin. All reference compounds are run in full dose response curves and the EC50 and IC50 values are calculated.

[2] = tested on: menses induction; assay: Cynomolgus monkey menses induction assay; type: in vivo; conditions: 5 mg/kg po
Protocol: C. Cynomolgus Monkey […] Induction 1. Experimental Design The effects of administered compound(s) in either a single dose or a dose-response paradigm versus an appropriate control (vehicle alone) are determined. When a compound is tested at a single dose, a group of four animals will be used for the dose. In the dose response study, each experiment will involve up to 5 groups of animals (a control group and 4 groups of animals treated with varying doses of the compound). Experimental groups will contain 3-4 animals/group, since this sample size is commonly used in the literature and has been found appropriate based on our own experience. The animals are treated with test compounds once or twice daily for 4 days in the mid-luteal phase of the menstrual cycle to assess the efficacy of the compounds on the reproductive parameters menstruation. 2. Procedures Initially, animals are characterized in terms of their reproductive cyclicity by observing time of menstruation. Only those animals with two consecutive normal cycles are used to evaluate test compounds. […] will be determined by daily gross examination for vaginal bleeding. In each experiment, animals will be treated once or twice daily IV, IM, SC or PO with the test compound. Appropriate vehicles will be determined for each route of administration and will be specified through protocol amendments. […]

[3] = Cynomolgus monkey intravenous pharmacokinetics; conditions: in vivo, cynomolgus monkeys, 0.25 mg/kg i.v.
Description: Therefore from the preceding data it is clear that the R6=fluorine group present in 5-(7-fluoro-3,3-dimethyl-2-oxo-2,3-dihydro-1H-indol-5-yl)-1-methyl-1H-pyrrole-2-carbonitrile dramatically improves the pharmacokinetic performance of the molecule. This improved pharmacokinetic performance translates in the cynomolgus menses induction assay to a dramatic improvement in activity.

IC50 ([1]; PR antagonist, comparative example text, read-out: IC50 in the T47D alkaline phosphatase assay): 3.4 nM
IC50 ([1]; T47D cells, antagonist mode in the presence of 1 nM progesterone, 24 hours, read-out: IC50 (nM), T47D Cell Alkaline Phosphatase Assay): 5.4 nM
AUC(0-inf) ([3]; read-out: exposure (AUC0-∞)): 578 ng·h/mL
half-life ([3]; read-out: mean half life (t1/2) (converted)): 8.8 h
SMILES: Cn1c(C#N)ccc1-c1cc(F)c2c(c1)C(C)(C)C(=O)N2 [5-(7-fluoro-3,3-dimethyl-2-oxo-2,3-dihydro-1H-indol-5-yl)-1-methyl-1H-pyrrole-2-carbonitrile]
induction of early onset of menses [2]: 4 out of 5
